Here are results for three compounds from PMC12499404, “Colloidal Interactions in Simulated Intestinal Fluids: Implications for Oral Drug Delivery at the Nanoscale” (Small Science, 2025).

One data set in a line: physchem. The note with it: 37 °C, pH 6.5, fassif, thermodynamic from solid, apparent solubility. It is filed as physicochemical. How it is done:
Excess powder (at least 2‐3 times the expected equilibrium solubility) was added to 10 mL preheated simulated intestinal fluids, and the dissolution was monitored until a plateau was reached. […] This is in line with previously reported observations.^[ [26], [27] ^] […] This is likely because of the neutral and more lipophilic properties of felodipine (Table 1), where it is expected to see a larger benefit of the solubilization properties of the formed micelles.
The dissolution and apparent solubilities of two poorly water‐soluble drugs, indomethacin and felodipine, were determined in the simulated intestinal fluids using a MicroDISS Profiler (pION Inc Ltd, East Sussex, UK). In each experiment (n ≥ 3), excess powder (at least 2‐3 times) compared to the expected solubility value was added to 10 mL simulated intestinal fluid. The experiments were performed at 37 °C using a stirring rate of 150 rpm, while the samples were scanned by individual UV probes every 10–30 s. […] The concentrations were determined based on the area under the curve in second derivative spectra evaluated over a range of wavelengths. […] The hydrodynamic size of the simulated intestinal fluids and drugs dissolved in the different simulated intestinal fluids was determined using a Malvern Zetasizer Nano ZSP (Malvern Instruments, Worcestershire, UK) with single‐use disposable microcuvettes. […]

Details of data set [1]: method as in PMID 20507160. The conditions noted are these: cited from earlier work.
The conditions of data set [2]: cited from earlier work.

Each structure is given as a SMILES string. ≈ marks a conversion by molar mass, not a printed value.

Regarding `CCOC(=O)C1=C(C)NC(C)=C(C(=O)OC)C1c1cccc(Cl)c1Cl` (stereo not drawn) [Felodipine, felodipine], in “physchem”, the solubility came to 49.3 ± 1.9 µg/mL (≈ 128 µM). Further, in data set [1], the LogP was 5.58 and the “Charge (pH 6.5)” value was 0.
`COc1ccc2c(c1)c(CC(=O)O)c(C)n2C(=O)c1ccc(Cl)cc1` [Indomethacin, indomethacin]: in data set [1], the LogP is reported as 3.51 and the “Charge (pH 6.5)” value is on record as −1.
Turning to `C[C@H](CCC(=O)NCCS(=O)(=O)O)[C@H]1CC[C@H]2[C@@H]3[C@H](O)C[C@@H]4C[C@H](O)CC[C@]4(C)[C@H]3C[C@H](O)[C@]12C` [Taurocholic acid, taurocholic acid], the CMC in data set [2] was 3 to 8 mM.

In general, solubility refers to how much of the substance goes into solution per volume. For orientation: LogP means a log measure of how a compound divides between an organic and an aqueous phase.
